Two molecules from patent US6437128B1, “Cribrostatins 3-5” (Arizona Board of Regents, priority 2001, dated 2002) can be followed below.

What all share (type): cell-based
Test [1] deals with Candida albicans (ATCC 90028). Description: Antimicrobial disk diffusion.
Test [2] relates to Cryptococcus neoformans (ATCC 90112). Description: Antimicrobial disk diffusion.
The subject of test [3] is Micrococcus luteus (Presque Isle 456). Description: Antimicrobial disk diffusion.
Test [4] has as its system Staphylococcus aureus (ATCC 29213). Kind of test: Antimicrobial disk diffusion.
Test [5] relates to Enterococcus faecalis (ATCC 29212). Description: Antimicrobial disk diffusion.
For test [6], the system named is Bacillus subtilis (Presque Isle 620). Kind of test: Antimicrobial disk diffusion.
Test [7] has as its system Streptococcus pneumoniae (ATCC 6303). Description: Antimicrobial disk diffusion.
Test [8] relates to Stenotrophomonas maltophilia (ATCC 13637). Kind of test: Antimicrobial disk diffusion.
The subject of test [9] is Escherichia coli (ATCC 25922). Description: Antimicrobial disk diffusion.
The subject of test [10] is Enterobacter cloacae (ATCC 13047). Description: Antimicrobial disk diffusion.
The test system of test [11] is Neisseria gonorrhoeae (ATCC 49226). Description: Antimicrobial disk diffusion.
The subject of test [12] is Penicillin-resistant N. gonorrhoeae (clinical isolate). Kind of test: Antimicrobial disk diffusion.
Test [13] relates to P388 lymphocytic leukemia. Description: in vitro murine P388 lymphocytic leukemia (PS) cell growth inhibition. From the text: The fractions obtained from the 1988-89 recollection of Cribrochalina so. (See: Pettit, G. R.; Collins, J. C.; Herald, D. L.; Doubek, D. L.; Boyd, M. R.; Schmidt, J. M.; Hooper, J. N. A.; Tackett, L. P. Can. J. Cheim. 1992, 70, 1170-1175) beginning with the 195 g dichloromethane partition fraction were re-examined guided by bioassay results using the murine P388 lymphocytic leukemia.
(§1) Individual cell line response values are provided in the Experimental.

Another test deals with BXPC-3 (Pancreas-a). Description: ASU-CRI minipanel of human cancer cell lines. The following applies: Pancreas-a BXPC-3.
Excerpt: as §1

A further test relates to DU-145 (Prostate). Description: ASU-CRI minipanel of human cancer cell lines. Conditions: Prostate DU-145.
Excerpt: as §1

The next test deals with KM20L2 (Colon). Description: ASU-CRI minipanel of human cancer cell lines.
Excerpt: as §1

The next test relates to NCI-H460 (Lung-NSC). Kind of test: ASU-CRI minipanel of human cancer cell lines.
Excerpt: as §1

In a further test the test system is OVCAR-3 (Ovarian). Description: ASU-CRI minipanel of human cancer cell lines. The following applies: Ovarian OVCAR-3.
Excerpt: as §1

The next test has as its system SF-295 (CNS). Kind of test: ASU-CRI minipanel of human cancer cell lines. The following applies: CNS SF-295.
Excerpt: as §1

In brackets after ≈: the same amount, converted by molar mass. Like-named read-outs stand apart in the source and are kept apart here.

As for `CC1=C(N)C(=O)c2c(ccnc2C)C1=O` [Cribrostatin 1, cribrostatin 1, reference compound], the Minimum inhibitory concentration entry in test [1], in test [2], in test [3], in test [4], in test [5] and in [6] was “* (No inhibition at 100 μg/disk)” throughout. The Minimum inhibitory concentration entry in test [7] is given as “* (No inhibition at 100 μg/disk)”; in test [8] it was “* (No inhibition at 100 μg/disk)”; in test [9], “* (No inhibition at 100 μg/disk)”; in test [10], “* (No inhibition at 100 μg/disk)”; in test [11], 0.39-0.78 μg/disk; in [12], 0.39-0.78 μg/disk.
`C/C=C(/C)C(=O)OC[C@H]1C2=C(C=C3[C@H]4c5c(O)c(OC)c(C)c(O)c5C(=O)[C@@H](C(=O)N31)N4C)C(=O)C(C)=C(OC)C2=O` [Cribrostatin 5, cribrostatin 5]: the GI50 in test [13] (Mouse Leukemia P388) came to 0.045 µg/mL (≈ 0.0778 µM); in the test with BXPC-3 (Pancreas-a), 0.29 µg/mL (≈ 0.501 µM); in the test with DU-145 (Prostate) it was 0.30 µg/mL (≈ 0.519 µM); in the test on KM20L2 (Colon) it was 0.14 µg/mL (≈ 0.242 µM); with NCI-H460 (Lung-NSC), 0.22 µg/mL (≈ 0.38 µM); in the test with OVCAR-3 (Ovarian), 0.18 µg/mL (≈ 0.311 µM). The same molecule had a GI50 in the test on SF-295 (CNS) of 0.36 µg/mL (≈ 0.622 µM). Besides, in test [13] (in vitro P388 lymphocytic leukemia, listed as cribrostatin 5), the “PS ED50 (P388 ED50)” value was 0.045 µg/mL. Further, the results for the Minimum inhibitory concentration in test [3] (listed as 4b), in test [6] and in test [7] (listed as 4b) were 50-100 μg/disk, “* (No inhibition at 100 μg/disk)” and “* (No inhibition at 100 μg/disk)”, respectively.
